Values after ≈ are worked out from the molar mass of the structure shown. Where two headings read alike, the source gives them in different places.
Tests used:
[1] = system: Klebsiella pneumoniae ATCC BAA-1705; conditions: for Avg. Log CFU/g thigh: BID; for decrease in CFU number in thighs in comparison to the vehicle control group: doses of 16 and 64 mg/kg (SC, BID)
Protocol: 4.2 Murine Neutropenic Thigh Model of Infection (Kiebsiella Pneumoniae ATCC BAA-1705)
All animal-related research is conducted in accordance with 2010/63/EU and National legislation regulating the use of laboratory animals in scientific research and for other purposes (Official Gazette 55/13).
In vivo studies and CFU determination were performed by Fidelta (Zagreb, Croatia) and all mice were obtained from Charles River Laboratories (Italy).
Two compounds, i.e. ABX5006 and ABX5020, and a comparator antibiotic (amikacin sulfate; Cat. No. 01693, Chem-Impex) were tested in a mouse model of thigh infection with Klebsiella pneumoniae ATCC BAA-1705.
Neutropenic thigh model: Pathogen-free male CD-1 mice (6 mice per dosing group) weighing 36±4 g were used. Prior to infection, neutropenia was induced in mice by two cyclophosphamide doses applied intraperitoneally four days (150 mg/kg body weight) and one day prior to infection (100 mg/kg body weight). […] For subcutaneous treatment, pre-weighed test item powder (ABX5006) was dissolved in PBS and the pH was adjusted (to reach a near-neutral pH), to reach a final concentration of 6.4 mg/mL for a dose of 64 mg/kg (group 3) or 1.6 mg/mL for a dose of 16 mg/kg (group 2). For subcutaneous treatment, pre-weighed test item powder (ABX5020) was dissolved in PBS and the pH was adjusted (to reach a near-neutral pH), to reach a final concentration of 6.4 mg/mL for a dose of 64 mg/kg (group 7) or 1.6 mg/mL for a dose of 16 mg/kg (group 6). For subcutaneous treatment, pre-weighed reference compound (amikacin sulfate) was dissolved in PBS and the pH was adjusted (to reach a near-neutral pH), to reach a final concentration of 6.4 mg/mL for a dose of 64 mg/kg (group 5) or 1.6 mg/mL for a dose of 16 mg/kg (group 4). Each mouse was infected with Klebsiella pneumoniae ATCC BAA-1705 (1.18×10^6/thigh), under light ketamine/xylazine anesthesia, by intramuscular administration of 0.10 mL of a suspension containing bacteria into both thighs. Animals were dosed subcutaneously twice with 8 h interval. Treatment was started 1 h following infection either with Vehicle—PBS (group 1) or amikacin sulfate (groups 4-5) or test compounds (groups 2-3 and 6-7) as described above. All Mice were overdosed with ketamine/xylazine 24 hours post infection. Thighs were aseptically removed and separately placed into sterile Precellys test tubes containing 2 mL of sterile PBS. Precellys test tubes were weighed and the weight was recorded prior and post-sampling. Each thigh was homogenized in sterile PBS using Ultraturax, IKA. After homogenizing, a serial dilution of the homogenates was used for CFU determination. A CFU count of each thigh acted as a single result.
Supplies/Chemicals. BBL™ Mueller Hinton Broth (REF 275730, Becton Dickinson); BBL™ Mueller Hinton Agar 2 (REF 211438, Becton Dickinson); PBS (Cat. No. P4417, Sigma); Saline (Serial No. 1422115, HZ™); Xylazine 2% (Alfasan, International B.V.); Narkamon (100 mg/mL ketamine chloride, Bioveta); Cyclophosphamide monohydrate (No. C2236, TCI); Sterile, single use needles (BD MICROLANCE Kanuele, 27 G, REF 300220, Becton Dickinson); 5 mL syringes (BD Plastipak, REF 300013, Becton Dickinson).
Anesthesia. 1 mL of Narkamon, 0.2 mL of Xylazine and 9 mL of saline; Dose volume: 10 mL/kg body weight.
Inoculum preparation for intramuscular infection. The strain was streaked out onto MH agar. On the following day Mueller-Hinton broth was inoculated with several colonies of Klebsiella pneumoniae and incubated at 37° C. in an orbital shaker until log phase of growth was reached (OD600=0.6). Log bacteria was centrifuged and suspended in equal volume of sterile PBS and subsequently diluted to obtain a bacterial suspension of adequate inoculum size.

[2] = system: Escherichia coli (ATCC 700336); assay: MIC against the strain of the urinary tract infection model; assay type: cell-based; conditions: ATCC700336
[3] = system: Klebsiella pneumoniae ATCC 43816; assay: Murine neutropenic thigh model of infection; assay type: in vivo, male CD-1 mice; conditions: for Avg. Log CFU/g thigh: 24 h post infection; for survival rate: first study, vehicle group 50% mortality; for Avg. Log CFU/g: thigh, 24 hours post infection
Protocol: 4.1 Murine Neutropenic Thigh Model of Infection (Kiebsiella Pneumoniae ATCC 43816)
A comparator antibiotic (meropenem; Cat. No. 1392454, USP) was used during both studies.
During the first study ABX5006 and ABX5020 were tested at a dose of 64 mg/kg (group 5 for ABX5006, group 8 for ABX5020), 16 mg/kg (group 4 for ABX5006, group 7 for ABX5020) and of 4 mg/kg (group 3 for ABX5006, group 6 for ABX5020).
During a second study ABX5026 and ABX5039 were tested at a dose of 4 mg/kg (group 5 for ABX5026, group 8 for ABX5039), 1 mg/kg (group 4 for ABX5026, group 7 for ABX5039) and of 0.25 mg/kg (group 3 for ABX5026, group 6 for ABX5039).
Animals were dosed subcutaneously (10 mL/kg) twice with 8 h interval. […] A CFU count below limit of detection (LOD=1.0×10^2 CFU/mL) was substituted with the value 0 in order to perform statistical analysis.
Inoculum preparation for intramuscular infection. The strain was streaked out onto MH agar.

[4] = Log CFU/g thigh, dose 4 mg/kg SC BID
[5] = Log CFU/g thigh, dose 16 mg/kg SC BID
[6] = Log CFU/g thigh, dose 64 mg/kg SC BID
[7] = dose 0.25 mg/kg, SC, BID, Avg. Log CFU/g thigh vs vehicle
[8] = dose 1 mg/kg, SC, BID, Avg. Log CFU/g thigh vs vehicle
[9] = dose 4 mg/kg, SC, BID, Avg. Log CFU/g thigh vs vehicle

## N=C(N)NC1C(O)[C@@H](CO)OC(OC2C(F)[C@H](O[C@H]3OC(CN)[C@@H](O)CC3N)C(N)C[C@H]2NC(=O)[C@@H](O)CCN)[C@@H]1O (some centres unmarked) [ABX5006, Tobra-AHB-F-Gua]
[1]; dose 16 mg/kg, SC
  Avg. Log CFU/g thigh: 6.08 Log CFU/g
[1]; dose 64 mg/kg, SC
  Avg. Log CFU/g thigh: 5.69 Log CFU/g
[1]
  decrease in CFU number in thighs in comparison to the vehicle control group: 2.8-3.2 log 10
[2]
  MIC: 0.25 µg/mL (≈ 0.408 µM)
[3]; [4]
  Change from vehicle group: −7.05
[3]; [5]
  Change from vehicle group: −8.36
[3]; [6]
  Change from vehicle group: −9.13
[3]; dose 4 mg/kg SC BID
  CFU count reduction in comparison to the vehicle control group: 7 log 10
  Avg. Log CFU/g thigh: 2.47 Log CFU/g
[3]; dose 16 mg/kg SC BID
  Avg. Log CFU/g thigh: 1.15 Log CFU/g
[3]; dose 64 mg/kg SC BID
  Avg. Log CFU/g thigh: 0.38 Log CFU/g
[3]
  survival rate: 100%

## N=C(NCCN)NC1C(O)[C@@H](CO)OC(OC2C(F)[C@H](O[C@H]3OC(CN)[C@@H](O)CC3N)C(N)C[C@H]2NC(=O)[C@@H](O)CCN)[C@@H]1O (some centres unmarked) [ABX5020, Tobra-AHB-F-Gua-2-amino-ethyl]
[1]; dose 16 mg/kg, SC
  Avg. Log CFU/g thigh: 6.18 Log CFU/g
[1]; dose 64 mg/kg, SC
  Avg. Log CFU/g thigh: 5.29 Log CFU/g
[1]
  decrease in CFU number in thighs in comparison to the vehicle control group: 2.7-3.6 log 10
[1]; infected neutropenic mice, SC
  animals euthanized prior to second dose due to weak clinical condition: Two animals
[3]; [4]
  Change from vehicle group: −8.04
[3]; [5]
  Change from vehicle group: −8.14
[3]; [6]
  Change from vehicle group: −9.32
[3]; dose 4 mg/kg SC BID
  Avg. Log CFU/g thigh: 1.47 Log CFU/g
[3]; dose 16 mg/kg SC BID
  Avg. Log CFU/g thigh: 1.37 Log CFU/g
[3]; dose 64 mg/kg SC BID
  Avg. Log CFU/g thigh: 0.19 Log CFU/g
[3]
  survival rate: 100%

## N=C(NC[C@@H]1CCCN1)NC1[C@@H](O)C(OC2[C@@H](F)[C@H](O[C@H]3OC(CN)[C@@H](O)CC3N)C(N)C[C@H]2NC(=O)[C@@H](O)CCN)O[C@H](CO)[C@H]1O (stereo partly drawn) [ABX5026, Tobra-AHB-F-Gua (S) pyrrolidine-2-yl-methyl]
[2]
  MIC: 1 µg/mL (≈ 1.44 µM)
[3]; [7]
  Change from vehicle group: 1.80
[3]; dose 0.25 mg/kg, SC, BID
  Avg. Log CFU/g: 7.98 Log CFU/g
[3]; dose 1 mg/kg SC BID
  CFU count reduction in comparison to the vehicle control group: > 6 log 10
[3]; [8]
  Change from vehicle group: 6.44
[3]; dose 1 mg/kg, SC, BID
  Avg. Log CFU/g: 3.34 Log CFU/g
[3]; [9]
  Change from vehicle group: 7.56
[3]; dose 4 mg/kg, SC, BID
  Avg. Log CFU/g: 2.22 Log CFU/g

## N=C(NC[C@@H]1CCNC1)NC1[C@@H](O)C(OC2[C@@H](F)[C@H](O[C@H]3OC(CN)[C@@H](O)CC3N)C(N)C[C@H]2NC(=O)[C@@H](O)CCN)O[C@H](CO)[C@H]1O (stereo partly drawn) [ABX5039, Tobra-AHB-F-Gua (R) pyrrolidine-3-ylmethyl]
[3]; [7]
  Change from vehicle group: 0.70
[3]; dose 0.25 mg/kg, SC, BID
  Avg. Log CFU/g: 9.08 Log CFU/g
[3]; dose 1 mg/kg SC BID
  CFU count reduction in comparison to the vehicle control group: > 4 log 10
[3]; [8]
  Change from vehicle group: 4.71
[3]; dose 1 mg/kg, SC, BID
  Avg. Log CFU/g: 5.07 Log CFU/g
[3]; [9]
  Change from vehicle group: 7.55
[3]; dose 4 mg/kg, SC, BID
  Avg. Log CFU/g: 2.23 Log CFU/g

## NCC[C@H](O)C(=O)N[C@@H]1C[C@H](N)[C@@H](O[C@H]2O[C@H](CN)[C@@H](O)[C@H](O)[C@H]2O)[C@H](O)[C@H]1O[C@H]1O[C@H](CO)[C@@H](O)[C@H](N)[C@H]1O [Amikacin, amikacin, reference compound]
[1]; dose 16 mg/kg, SC
  Avg. Log CFU/g thigh: 8.19 Log CFU/g
[1]; dose 64 mg/kg, SC
  Avg. Log CFU/g thigh: 7.24 Log CFU/g
[1]
  decrease in CFU number in thighs in comparison to the vehicle control group: did not significantly decrease CFU counts in thighs

— US20220127297A1, “Novel Antibacterial 3"-Derivatives Of 4,6-Disubstituted 2,5-Dideoxystreptamine Aminoglycoside Antibiotics” (AGILeBiotics B.V., priority 2018, published 2022)
